In US9145411B2, “Substituted amino-pyrimidine derivatives” (Asana Biosciences, LLC, priority 2012, dated 2015):

Columns and labels:
[1] = molecular target: T1, mTOR kinase (Homo sapiens, UniProt P42345); assay: mTOR kinase TR-FRET assay; assay type: biochemical; details: 20 μM ATP
T1 construct: purchased Millipore, USA
Experimental: Compound inhibition for mTOR kinase was determined in a homogeneous TR-FRET assay using the Lance® ULight-p70 S6K (Thr 389) peptide (obtained from Perkin-Elmer). The ULight™-labeled synthetic peptide contains the amino acid residues surrounding Thr389 of human p70 S6K. The ULight-p70 S6K peptide is phosphorylated at Thr389 by mTOR. Phosphorylation motif: LGFTYVAP as substrate.
The compound dilution was carried out in 100% DMSO followed by a buffer dilution. The reaction buffer was HEPES (50 mM pH 7.5), EGTA (1 mM), MnCl2 (3 mM). Test compounds at various concentrations were pre-incubated with mTOR (Millipore, USA; 5 ng) for 60 min, and then the Lance® ULight-p70 S6K (Thr 389) peptide (50 nM) was added along with ATP (20 μM). After incubating the reaction mixture for 60 minutes at room temperature, the kinase reaction was terminated by the addition of EDTA (10 mM) followed by the addition of detection mix, i.e., 1 nM Eu-labeled anti-phospho-substrate antibody (Perkin Elmer, USA). The fluorescence emission at […] was measured upon excitation at 340 nm. IC50 values were subsequently determined using a sigmoidal dose-response curve (variable slope) in GraphPad Prism® 5 software.
Compounds of formula (I) caused inhibition of mTOR kinase activity as determined by this assay.

[2] = molecular target: T2, PI3Kα (wild-type) (Homo sapiens, UniProt P42336); assay: PI3 Kinase TR-FRET assay, PI3Kα (wild-type); assay type: biochemical; details: wild-type P110/P85α, 10 μM ATP
T2 construct: made in house; host or cells: SF9 insect cells
Experimental: The ability of compounds of the invention to inhibit PI3K activity was determined in a homogeneous TR-FRET assay using a PI3K assay kit (Millipore, USA; cat #33-016) according to manufacturer's instructions. PI3-Kinases (isoforms α, β, γ and δ) catalyze the phosphorylation of phosphatidylinositol, PIP2 to PIP3 in the presence of ATP and Mg^2+. The PIP3 product is detected by displacement of biotin-PIP3 from an energy transfer complex consisting of Europium labeled anti-GST monoclonal antibody, a GST-tagged PH domain, biotinylated PIP3 and Streptavidin-APC. Excitation of Europium in the complex results in an energy transfer to the APC and a fluorescence emission at 665 nm. The PIP3 product displaces biotin-PIP3 from the complex resulting in a loss of energy transfer and thus a decrease in signal.
To test for the ability of compounds to inhibit the activity of PI3Kα (wild-type), exemplary compounds of formula (I) were dissolved in DMSO and directly distributed into 384-well plates at a volume of 0.5 μL. 14.5 μL of P110/P85α/PIP2 mixture in buffer (obtained from the Millipore kit) containing MgCl2 (40 mM) and DTT (5 mM) was added to compound wells and incubated for 60 minutes at room temperature. P110/P85α was expressed in SF9 insect cells and purified nickel column extraction. Five ng of wild-type P110/P85α was used in the assay. The kinase reaction was started by the addition of ATP. The assay concentrations of both PIP2 and ATP were 10 μM. The reaction mixture was incubated for 30 minutes at room temperature and was terminated by the addition of stop mix and detection mix. Fluorescence was measured at 615 and 665 nm upon excitation at 340 nm in a Victor™ V5 fluorometer (Perkin Elmer, USA). The fluorescence emission ratio at 665 to 615 nm, proportional to the kinase activity, was plotted against the compound concentration to generate dose-response curves and IC50 values were determined using GraphPad Prism® 5 software.

T1 sequence (P42345 1362-2549 limits assumed): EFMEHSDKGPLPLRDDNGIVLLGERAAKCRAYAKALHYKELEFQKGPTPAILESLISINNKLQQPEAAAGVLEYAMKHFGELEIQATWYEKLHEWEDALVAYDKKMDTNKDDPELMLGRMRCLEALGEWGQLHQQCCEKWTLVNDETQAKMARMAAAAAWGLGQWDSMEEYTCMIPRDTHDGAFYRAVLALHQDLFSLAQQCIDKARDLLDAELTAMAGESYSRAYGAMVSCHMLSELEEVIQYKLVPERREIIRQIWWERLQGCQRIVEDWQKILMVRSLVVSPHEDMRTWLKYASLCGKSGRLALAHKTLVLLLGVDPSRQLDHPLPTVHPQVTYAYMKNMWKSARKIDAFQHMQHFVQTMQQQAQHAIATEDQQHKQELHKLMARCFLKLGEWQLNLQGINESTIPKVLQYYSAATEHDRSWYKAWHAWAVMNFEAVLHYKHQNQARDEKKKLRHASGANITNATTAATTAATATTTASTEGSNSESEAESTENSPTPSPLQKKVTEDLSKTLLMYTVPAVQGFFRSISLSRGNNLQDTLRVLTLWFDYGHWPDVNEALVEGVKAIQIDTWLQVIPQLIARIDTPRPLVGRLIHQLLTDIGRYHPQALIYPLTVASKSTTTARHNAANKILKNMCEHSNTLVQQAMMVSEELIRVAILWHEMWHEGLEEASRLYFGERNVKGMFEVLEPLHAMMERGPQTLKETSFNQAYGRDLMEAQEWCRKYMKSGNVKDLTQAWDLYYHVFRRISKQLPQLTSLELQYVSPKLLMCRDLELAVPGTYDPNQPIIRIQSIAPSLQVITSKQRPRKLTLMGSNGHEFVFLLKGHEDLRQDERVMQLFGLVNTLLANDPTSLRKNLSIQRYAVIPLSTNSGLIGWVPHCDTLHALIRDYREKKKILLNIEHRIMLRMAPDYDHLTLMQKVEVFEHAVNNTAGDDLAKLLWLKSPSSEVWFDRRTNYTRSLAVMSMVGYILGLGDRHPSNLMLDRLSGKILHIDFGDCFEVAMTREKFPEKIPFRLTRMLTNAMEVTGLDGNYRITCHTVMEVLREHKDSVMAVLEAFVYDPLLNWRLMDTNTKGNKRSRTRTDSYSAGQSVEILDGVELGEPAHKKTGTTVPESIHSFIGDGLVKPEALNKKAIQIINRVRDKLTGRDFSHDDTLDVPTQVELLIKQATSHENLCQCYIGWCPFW
T2 sequence (P42336 whole entry, species assumed): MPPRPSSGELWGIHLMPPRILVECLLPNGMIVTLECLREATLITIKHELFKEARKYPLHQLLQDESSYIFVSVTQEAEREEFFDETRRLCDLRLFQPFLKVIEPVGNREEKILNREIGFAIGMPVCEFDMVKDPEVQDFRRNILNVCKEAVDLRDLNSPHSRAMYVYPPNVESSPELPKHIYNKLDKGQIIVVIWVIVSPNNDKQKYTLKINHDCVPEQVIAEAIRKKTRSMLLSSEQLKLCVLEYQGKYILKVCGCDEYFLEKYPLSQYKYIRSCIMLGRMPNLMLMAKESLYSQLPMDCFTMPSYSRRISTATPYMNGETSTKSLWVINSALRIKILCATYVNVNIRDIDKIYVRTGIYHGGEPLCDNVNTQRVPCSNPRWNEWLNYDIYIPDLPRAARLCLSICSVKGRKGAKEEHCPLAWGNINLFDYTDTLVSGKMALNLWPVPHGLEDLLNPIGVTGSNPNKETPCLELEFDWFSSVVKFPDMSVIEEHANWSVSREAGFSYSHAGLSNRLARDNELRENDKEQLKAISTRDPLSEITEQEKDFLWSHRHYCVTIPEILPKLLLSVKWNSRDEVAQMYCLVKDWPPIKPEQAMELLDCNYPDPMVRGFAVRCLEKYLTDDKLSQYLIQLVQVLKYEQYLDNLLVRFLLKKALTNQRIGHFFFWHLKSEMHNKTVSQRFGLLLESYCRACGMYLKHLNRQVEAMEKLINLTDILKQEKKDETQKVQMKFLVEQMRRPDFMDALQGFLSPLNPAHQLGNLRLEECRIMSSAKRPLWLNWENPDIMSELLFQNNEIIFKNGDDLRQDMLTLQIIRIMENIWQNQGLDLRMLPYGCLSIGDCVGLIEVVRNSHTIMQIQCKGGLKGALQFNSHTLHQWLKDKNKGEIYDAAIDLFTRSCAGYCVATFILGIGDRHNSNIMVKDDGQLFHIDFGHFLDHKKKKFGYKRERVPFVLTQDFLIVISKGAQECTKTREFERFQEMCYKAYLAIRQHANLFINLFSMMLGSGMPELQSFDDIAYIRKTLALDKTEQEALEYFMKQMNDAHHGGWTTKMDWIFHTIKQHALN
T2 sequence (P27986 whole entry partner, species assumed): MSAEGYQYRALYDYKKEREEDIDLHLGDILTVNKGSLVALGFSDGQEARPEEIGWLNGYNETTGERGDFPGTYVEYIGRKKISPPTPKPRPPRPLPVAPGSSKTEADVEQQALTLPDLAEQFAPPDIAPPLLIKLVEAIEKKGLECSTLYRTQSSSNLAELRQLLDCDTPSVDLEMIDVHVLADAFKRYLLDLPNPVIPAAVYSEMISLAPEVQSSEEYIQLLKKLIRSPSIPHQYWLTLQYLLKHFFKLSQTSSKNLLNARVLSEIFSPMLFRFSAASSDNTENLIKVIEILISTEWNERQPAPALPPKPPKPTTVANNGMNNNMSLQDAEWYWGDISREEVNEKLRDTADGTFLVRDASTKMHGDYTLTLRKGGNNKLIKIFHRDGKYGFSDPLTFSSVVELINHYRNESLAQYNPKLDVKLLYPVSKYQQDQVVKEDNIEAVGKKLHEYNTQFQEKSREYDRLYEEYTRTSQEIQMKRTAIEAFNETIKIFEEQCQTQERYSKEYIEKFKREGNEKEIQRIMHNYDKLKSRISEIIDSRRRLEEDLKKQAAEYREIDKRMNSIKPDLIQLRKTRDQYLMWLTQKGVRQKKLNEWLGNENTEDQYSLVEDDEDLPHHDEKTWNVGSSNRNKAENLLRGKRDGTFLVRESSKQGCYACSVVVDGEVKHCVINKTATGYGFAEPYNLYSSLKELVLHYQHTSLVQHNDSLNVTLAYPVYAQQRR

Compound	IC50 [1] [nM]	IC50 [2] [nM]
CC(C)(O)C(=O)Nc1cccc(-c2ccc3c(N4CCOCC4)nc(-c4cnc(N)nc4)nc3c2)c1 [Example 6, N-(3-(2-(2-Aminopyrimidin-5-yl)-4-morpholinoquinazolin-7-yl)phenyl)-2-hydroxy-2-methylpropanamide]	50 to 200	50 to 200
CC(O)C(=O)N1CCN(Cc2cnc3c(N4CCOCC4)nc(-c4cnc(N)nc4)nc3c2)CC1 (stereo not shown) [Example 11, 1-(4-((2-(2-aminopyrimidin-5-yl)-4-morpholinopyrido[3,2-d]pyrimidin-7-yl)-methyl)piperazin-1-yl)-2-hydroxypropan-1-one]	201 to 10000	201 to 10000
Nc1ncc(-c2nc(N3CCOCC3)c3ccc(-c4cncnc4)cc3n2)cn1 [Example 12, 5-(4-morpholino-7-(pyrimidin-5-yl)quinazolin-2-yl)pyrimidin-2-amine]	201 to 10000	201 to 10000
Nc1ncc(-c2nc(N3CCOCC3)c3ccc(-c4ccsc4)cc3n2)cn1 [Example 17, 5-(4-morpholino-7-(thiophen-3-yl)-quinazolin-2-yl)-pyrimidin-2-amine]	50 to 200	
CS(=O)(=O)c1cncc(-c2ccc3c(N4CCOCC4)nc(-c4cnc(N)nc4)nc3c2)c1 [Example 18, 5-(7-(5-(methyl-sulfonyl)pyridin-3-yl)-4-morpholinoquinazolin-2-yl)pyrimidin-2-amine]	201 to 10000	201 to 10000
Nc1ncc(-c2nc(N3CCOCC3)c3ccc(-c4cccnc4F)cc3n2)cn1 [Example 19, 5-(7-(2-fluoropyridin-3-yl)-4-morpholino-quinazolin-2-yl)-pyrimidin-2-amine]	> 1000	> 1000
Nc1ncc(-c2nc(N3CCOCC3)c3ncc(-c4ccc(NC(=O)C5CC5)cc4F)cc3n2)cn1 [Example 32, N-(4-(2-(2-amino-pyrimidin-5-yl)-4-morpholinopyrido[3,2-d]pyrimidin-7-yl)-3-fluorophenyl)cyclo-propanecarboxamide]	50 to 200	< 50
CS(=O)(=O)N1CCN(C(=O)c2cccc(-c3cnc4c(N5CCOCC5)nc(-c5cnc(N)nc5)nc4c3)c2)CC1 [Example 36, (3-(2-(2-aminopyrimidin-5-yl)-4-morpholino-pyrido[3,2-d]pyrimidin-7-yl)phenyl)(4-(methyl-sulfonyl)piperazin-1-yl)-methanone]		< 50
CN(C)CC(=O)Nc1cccc(-c2ccc3c(N4CCOCC4)nc(-c4cnc(N)nc4)nc3c2)c1 [Example 42, N-(3-(2-(2-amino-pyrimidin-5-yl)-4-morpholinoquinazolin-7-yl)phenyl)-2-(dimethylamino)-acetamide]	50 to 200	201 to 10000
Nc1ncc(-c2nc(N3CCOCC3)c3ncc(-c4ccc(NC(=O)C5CCC5)cc4)cc3n2)cn1 [Example 78, N-(4-(2-(2-amino-pyrimidin-5-yl)-4-morpholinopyrido[3,2-d]pyrimidin-7-yl)-phenyl)cyclobutane-carboxamide]		< 50
CN1CCN(C(=O)Nc2cccc(-c3ccc4c(N5CCOCC5)nc(-c5cnc(N)nc5)nc4c3)c2)CC1 [Example 87, N-(3-(2-(2-amino-pyrimidin-5-yl)-4-morpholinoquinazolin-7-yl)phenyl)-4-methyl-piperazine-1-carboxamide]	201 to 10000	< 50
CC(C)(C#N)C(=O)N1CCN(c2cccc(-c3cnc4c(N5CCOCC5)nc(-c5cnc(N)nc5)nc4c3)c2)CC1 [Example 107, 3-(4-(3-(2-(2-amino-pyrimidin-5-yl)-4-morpholinopyrido[3,2-d]-pyrimidin-7-yl)-phenyl)piperazin-1-yl)-2,2-dimethyl-3-oxopropanenitrile]		< 50

Results, then the compound that gave them:

IC50 [1] [nM]	IC50 [2] [nM]	Compound
50 to 200	50 to 200	CC(=O)N(C)c1cccc(-c2cnc3c(N4CCOCC4)nc(-c4cnc(N)nc4)nc3c2)c1 [Example 27, N-(3-(2-(2-amino-pyrimidin-5-yl)-4-morpholinopyrido[3,2-d]-pyrimidin-7-yl)phenyl)-N-methylacetamide]
201 to 10000	< 50	CC(=O)Nc1cncc(-c2cnc3c(N4CCOCC4)nc(-c4cnc(N)nc4)nc3c2)c1 [Example 30, N-(5-(2-(2-amino-pyrimidin-5-yl)-4-morpholinopyrido[3,2-d]pyrimidin-7-yl)pyridin-3-yl)acetamide]
50 to 200	< 50	CN(C)C(=O)c1cccc(-c2cnc3c(N4CCOCC4)nc(-c4cnc(N)nc4)nc3c2)c1 [Example 41, 3-(2-(2-aminopyrimidin-5-yl)-4-morpholinopyrido[3,2-d]pyrimidin-7-yl)-N,N-dimethylbenzamide]
< 50	201 to 10000	CC(O)C(=O)Nc1cccc(-c2ccc3c(N4CCOCC4)nc(-c4cnc(N)nc4)nc3c2)c1 (stereo not shown) [Example 43, N-(3-(2-(2-amino-pyrimidin-5-yl)-4-morpholinoquinazolin-7-yl)phenyl)-2-hydroxy-propanamide]
201 to 10000	50 to 200	C[C@H](O)C(=O)Nc1cccc(-c2ccc3c(N4CCOCC4)nc(-c4cnc(N)nc4)nc3c2)c1 [Example 44]
50 to 200	< 50	Nc1ncc(-c2nc(N3CCOCC3)c3ncc(-c4ccc(NC(=O)C5CC5)cc4)cc3n2)cn1 [Example 62, N-(4-(2-(2-amino-pyrimidin-5-yl)-4-morpholinopyrido[3,2-d]pyrimidin-7-yl)-phenyl)cyclopropane-carboxamide]
< 50	< 50	Nc1ncc(-c2nc(N3CCOCC3)c3ncc(-c4cccc(NC(=O)C5CCOCC5)c4)cc3n2)cn1 [Example 63, N-(3-(2-(2-amino-pyrimidin-5-yl)-4-morpholinopyrido[3,2-d]pyrimidin-7-yl)-phenyl)tetrahydro-2H-pyran-4-carboxamide]
	< 50	Nc1ncc(-c2nc(N3CCOCC3)c3ncc(-c4cccc(NC(=O)c5csnn5)c4)cc3n2)cn1 [Example 69, N-(3-(2-(2-amino-pyrimidin-5-yl)-4-morpholinopyrido[3,2-d]pyrimidin-7-yl)phenyl)-1,2,3-thiadiazole-4-carboxamide]
< 50	< 50	Nc1ncc(-c2nc(N3CCOCC3)c3ncc(-c4cc(NC(=O)c5cccnc5)ccc4F)cc3n2)cn1 [Example 71, N-(3-(2-(2-amino-pyrimidin-5-yl)-4-morpholinopyrido[3,2-d]-pyrimidin-7-yl)-4-fluoro-phenyl)nicotinamide]
	< 50	Cc1ccc(C(=O)Nc2ccc(F)c(-c3cnc4c(N5CCOCC5)nc(-c5cnc(N)nc5)nc4c3)c2)o1 [Example 72, N-(3-(2-(2-amino-pyrimidin-5-yl)-4-morpholinopyrido[3,2-d]pyrimidin-7-yl)-4-fluorophenyl)-5-methylfuran-2-carboxamide]
	< 50	Cc1ccc(C(=O)Nc2ccc(-c3cnc4c(N5CCOCC5)nc(-c5cnc(N)nc5)nc4c3)cc2)o1 [Example 73, N-(4-(2-(2-amino-pyrimidin-5-yl)-4-morpholinopyrido[3,2-d]pyrimidin-7-yl)phenyl)-5-methylfuran-2-carboxamide]
	< 50	Nc1ncc(-c2nc(N3CCOCC3)c3ncc(-c4cccc(NC(=O)c5ccc(F)cc5)c4)cc3n2)cn1 [Example 74, N-(3-(2-(2-amino-pyrimidin-5-yl)-4-morpholinopyrido[3,2-d]pyrimidin-7-yl)phenyl)-4-fluorobenzamide]
< 50	< 50	Cc1cc(C(=O)Nc2cccc(-c3cnc4c(N5CCOCC5)nc(-c5cnc(N)nc5)nc4c3)c2)[nH]n1 [Example 75, N-(3-(2-(2-amino-pyrimidin-5-yl)-4-morpholinopyrido[3,2-d]pyrimidin-7-yl)phenyl)-3-methyl-1H-pyrazole-5-carboxamide]
	< 50	Nc1ncc(-c2nc(N3CCOCC3)c3ncc(-c4ccc(NC(=O)c5ccco5)cc4)cc3n2)cn1 [Example 79, N-(4-(2-(2-amino-pyrimidin-5-yl)-4-morpholinopyrido[3,2-d]pyrimidin-7-yl)-phenyl)furan-2-carboxamide]
